Measurements from ChEMBL document CHEMBL1687692, “Exploring α7-Nicotinic Receptor Ligand Diversity by Scaffold Enumeration from the Chemical Universe Database GDB” (ACS Med Chem Lett, 2010).
Blank lines part the entries; values can stand above or below the molecule they belong to.

Columns and labels:
[1] = target: T1, Neuronal acetylcholine receptor subunit alpha-7 (Homo sapiens, UniProt P36544); assay: Competitive antagonist activity at human alpha7 nAChR expressed in Xenopus oocyte assessed as inhibition of ACh-induced current by voltage clamp method; format: functional
T1 sequence (P36544 whole entry): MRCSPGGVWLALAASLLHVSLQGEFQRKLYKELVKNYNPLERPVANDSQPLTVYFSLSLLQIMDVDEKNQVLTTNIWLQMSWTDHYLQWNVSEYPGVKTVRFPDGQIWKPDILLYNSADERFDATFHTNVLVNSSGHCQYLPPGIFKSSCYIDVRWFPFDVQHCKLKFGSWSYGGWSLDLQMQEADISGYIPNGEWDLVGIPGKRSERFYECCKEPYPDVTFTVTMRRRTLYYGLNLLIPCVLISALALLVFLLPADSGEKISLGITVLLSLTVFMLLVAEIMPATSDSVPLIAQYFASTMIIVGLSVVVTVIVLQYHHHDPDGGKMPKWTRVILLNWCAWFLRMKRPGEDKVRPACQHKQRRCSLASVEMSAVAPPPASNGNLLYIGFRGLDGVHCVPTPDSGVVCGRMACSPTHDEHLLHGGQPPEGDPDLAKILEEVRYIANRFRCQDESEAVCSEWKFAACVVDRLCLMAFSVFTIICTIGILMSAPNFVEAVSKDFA

[2] = target: T1, Neuronal acetylcholine receptor subunit alpha-7; assay: Non competitive antagonist activity at human alpha7 nAChR expressed in Xenopus oocyte assessed as inhibition of ACh-induced current by voltage clamp method; format: functional
[3] = target: T1, Neuronal acetylcholine receptor subunit alpha-7; assay: Antagonist activity at human alpha7 nAChR expressed in Xenopus oocyte assessed as inhibition of ACh-induced current by voltage clamp method; format: functional
[4] = target: T1, Neuronal acetylcholine receptor subunit alpha-7; assay: Binding affinity to human alpha7 nAChR
[5] = target: T1, Neuronal acetylcholine receptor subunit alpha-7; assay: Partial agonist activity at human alpha7 nAChR expressed in Xenopus oocyte […] current by voltage clamp method; format: functional

SMILES: O=C(Oc1ccc(Br)cc1)N1CCCN2CCC[C@H]2C1
IC50 [1]: 5.6 µM

SMILES: O=C(NCC12CCCN1CCC2)c1ccc(Cl)cc1
IC50 [3]: 7.2 µM

SMILES: O=C(Oc1ccc(Br)cc1)N1CCN2CCC1CC2 [SSR180711]
Ki [4]: 0.014 µM
EC50 [5]: 4.4 µM

More lines, now with the values ahead:

IC50 [2]: 6.1 µM
SMILES: C[C@H]1CN2CCCC[C@@H]2CN1C(=O)c1ccc2c(c1)OCCO2

IC50 [3]: 7 µM
SMILES: CC(C)N1CCCCN(C(=O)c2ccc(Cl)cc2)CC1
